Test results as given in patent US12435061B2 (priority 2020, dated 2025).
Counter-ions that a name gives are not always drawn. Like-named read-outs stand apart in the source and are kept apart here.

Target: hTRPV3 (Homo sapiens (Human), UniProt Q8NET8)
Test: Whole-cell patch clamp, hTRPV3 Phase 1 / Phase 2 currents
Format: cell-based
Procedure, shortened: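 Currents are activated by 20 μM 2-APB or by perfusate at 28 °C or warmer, in Ringer's solution, and quantified at ±80 mV.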

[1] = Phase 1 current, human TRPV3, read-out: hTRPV3 (nM) Phase 1
[2] = Phase 1 current, inward, whole-cell patch clamp, read-out: hTRPV3 Patch P1 Inwd
[3] = Phase 1 current, read-out: hTRPV3 (nM) (Phase 1)
[4] = Phase 2 current, read-out: hTRPV3 (nM) (Phase 2)
[5] = Phase 2 current, inward, whole-cell patch clamp, read-out: hTRPV3 Patch P2 Inwd

Sequence of hTRPV3 (Q8NET8 whole entry): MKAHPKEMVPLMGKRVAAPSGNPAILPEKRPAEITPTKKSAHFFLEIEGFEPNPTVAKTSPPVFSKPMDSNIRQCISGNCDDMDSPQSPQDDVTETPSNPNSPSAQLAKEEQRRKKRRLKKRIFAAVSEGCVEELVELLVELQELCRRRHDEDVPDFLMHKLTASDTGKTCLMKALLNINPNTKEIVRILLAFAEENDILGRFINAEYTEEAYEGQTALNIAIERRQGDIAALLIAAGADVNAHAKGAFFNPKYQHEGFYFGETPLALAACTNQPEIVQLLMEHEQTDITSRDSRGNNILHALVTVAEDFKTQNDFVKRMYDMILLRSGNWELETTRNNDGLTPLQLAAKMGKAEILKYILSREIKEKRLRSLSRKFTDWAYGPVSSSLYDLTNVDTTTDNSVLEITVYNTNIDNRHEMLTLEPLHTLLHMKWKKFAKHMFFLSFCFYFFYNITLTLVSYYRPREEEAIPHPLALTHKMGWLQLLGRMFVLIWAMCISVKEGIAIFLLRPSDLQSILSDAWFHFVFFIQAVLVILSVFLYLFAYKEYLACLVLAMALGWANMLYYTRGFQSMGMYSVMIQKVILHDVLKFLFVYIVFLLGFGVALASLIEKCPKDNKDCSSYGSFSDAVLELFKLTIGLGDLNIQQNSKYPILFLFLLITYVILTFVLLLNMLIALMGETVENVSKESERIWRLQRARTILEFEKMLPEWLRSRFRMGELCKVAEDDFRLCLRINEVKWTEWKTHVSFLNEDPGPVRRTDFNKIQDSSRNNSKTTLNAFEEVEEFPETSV

SMILES	IC50 [2]	IC50 [3]	also measured
CCc1ccccc1Oc1ccc(C2CCN(C(=O)c3ccccn3)C2)c(C(N)=O)c1 (stereo not drawn) [Compound 2-38, 5-(2-ethylphenoxy)-2-(1-picolinoylpyrrolidin-3-yl)benzamide]	> 1000 nM		IC50 [1]: 2820 nM
O=C(c1cocn1)N1CCC(c2ccc(-c3ccccc3C3CC3)cc2CO)C1 (stereo not drawn) [Compound 2-121]			IC50 [1]: 61.2 nM
Cc1cccnc1-c1ccc(N2CC[C@H](Oc3ccc(C(F)(F)F)cn3)C2)c(CO)c1 [Compound 1-255, (S)-(5-(3-methylpyridin-2-yl)-2-(3-(5-(trifluoromethyl)pyridin-2-yloxy)pyrrolidin-1-yl)phenyl)methanol]	100 to 1000 nM	806 nM	
Cc1ccc(C(O)c2ccc(N3CC[C@H](Oc4ncccc4Cl)C3)c(CCO)c2)cc1 (stereo partly drawn) [Compound 1-310, 2-(2-((S)-3-(3-chloropyridin-2-yloxy)pyrrolidin-1-yl)-5-(hydroxy(p-tolyl)methyl)phenyl)ethanol]	> 1000 nM	4200 nM	
CCCc1ccccc1Oc1ccc(N2CC[C@H](Oc3ncccc3Cl)C2)c(CO)c1 [Compound 1-266, (S)-(2-(3-(3-chloropyridin-2-yloxy)pyrrolidin-1-yl)-5-(2-propylphenoxy)phenyl)methanol]	< 10 nM	2.65 nM	
O=C(c1ccccc1N1CC[C@@H](Oc2ccc(C(F)(F)F)cn2)C1)N(Cc1ccccc1)Cc1ccccc1 [Compound 1-53, (R)—N,N-dibenzyl-2-(3-(5-(trifluoromethyl)pyridin-2-yloxy)pyrrolidin-1-yl)benzamide]	> 1000 nM		
CC(C)c1ccccc1Oc1ccc(C2CCN(C(=O)c3ccc(C(F)(F)F)cn3)C2)c(CO)c1 (stereo not drawn) [Compound 2-21, (3-(2-(hydroxymethyl)-4-(2-isopropylphenoxy)phenyl)pyrrolidin-1-yl)(5-(trifluoromethyl)pyridin-2-yl)methanone]	10 to 100 nM		IC50 [1]: 97.1 nM
O=C(Nc1ccccc1)c1ccc(N2CC[C@H](Oc3ncccc3Cl)C2)c(CCO)c1 [Compound 1-320, (S)-4-(3-(3-chloropyridin-2-yloxy)pyrrolidin-1-yl)-3-(2-hydroxyethyl)-N-phenylbenzamide]	> 1000 nM	~4660 nM	
COc1cc(-c2ccccc2)ccc1N1CC[C@@H](Oc2ncc(C(F)(F)F)cc2Cl)C1 [Compound 1-120, (R)-3-chloro-2-(1-(3-methoxybiphenyl-4-yl)pyrrolidin-3-yloxy)-5-(trifluoromethyl)pyridine]		> 3200 nM	IC50 [4]: > 3200 nM; IC50 (hTRPV3 Patch P1 Inwd (nM), Phase 1 current, inward, whole-cell patch clamp): > 1000 nM; IC50 (hTRPV3 Patch P2 Inwd (nM), Phase 2 current, inward, whole-cell patch clamp): > 1000 nM
O=C(O)c1cc(-c2ccccc2)ccc1N1CC[C@H](Oc2ccc(C(F)(F)F)cn2)C1 [Compound 1-165, (S)-4-(3-(5-(trifluoromethyl)pyridin-2-yloxy)pyrrolidin-1-yl)biphenyl-3-carboxylic acid]	> 1000 nM	> 3200 nM	
N#Cc1cccc(C(O)c2ccc(N3CC[C@H](Oc4ncccc4Cl)C3)c(CCO)c2)c1 (stereo partly drawn) [Compound 1-356, 3-((4-((S)-3-(3-chloropyridin-2-yloxy)pyrrolidin-1-yl)-3-(2-hydroxyethyl)phenyl)(hydroxy)methyl)benzonitrile]	> 1000 nM	> 3200 nM	
CCc1ccccc1Oc1ccc(N2CC[C@H](Oc3ccc(C#N)cn3)C2)c(CO)c1 [Compound 1-352]	100 to 1000 nM	974 nM	
COCc1ccccc1Oc1ccc(N2CC[C@H](Oc3ccc(C)cn3)C2)c(CCO)c1 [Compound 1-349, (S)-2-(5-(2-(methoxymethyl)phenoxy)-2-(3-(5-methylpyridin-2-yloxy)pyrrolidin-1-yl)phenyl)ethanol]	100 to 1000 nM	908 nM	
Cc1cccc(C(O)c2ccc(C3CCN(C(=O)c4ncccc4Cl)C3)c(CO)c2)c1 (stereo not drawn) [Compound 2-2, (3-chloropyridin-2-yl)(3-(4-(hydroxy(m-tolyl)methyl)-2-(hydroxymethyl)phenyl)pyrrolidin-1-yl)methanone]	100 to 1000 nM		
Cc1cccc(C(O)c2ccc(C3CCN(C(=O)c4ncccc4Cl)C3)c(CO)c2)c1 (single isomer, unassigned) [Compound 2-8]	> 1000 nM		IC50 [1]: > 3200 nM
O=C(c1ccc(C(F)(F)F)cn1)N1CCC(c2ccc(-c3ccccc3)nc2CO)C1 (stereo not drawn) [Compound 2-81]	100 to 1000 nM		IC50 [1]: 268 nM; IC50 (Phase 2 current, human TRPV3, read-out: hTRPV3 (nM) Phase 2): 298 nM; IC50 [5]: 100 to 1000 nM
O=C(NCc1ccccc1)c1ccccc1N1CC[C@@H](Oc2ccc(C(F)(F)F)cn2)C1 [Compound 1-50, (R)—N-benzyl-2-(3-(5-(trifluoromethyl)pyridin-2-yloxy)pyrrolidin-1-yl)benzamide]	> 1000 nM		IC50 [5]: > 1000 nM
NCc1ccc(N2CC[C@@H](Oc3ccc(C(F)(F)F)cn3)C2)c(C(N)=O)c1 [Compound 1-45]	> 1000 nM		

SMILES	IC50 [2]	IC50 [3]	also measured
CC(C)c1ccc(Oc2ccc(N3CC[C@H](Oc4ccccn4)C3)c(CO)c2)cc1 [Compound 1-325]			hTRPV3 (nM) (Phase 1) (Phase 1 current): Incomplete Block (Phase 1)
O=C(c1ccc(CCO)c(N2CC[C@H](Oc3ncccc3Cl)C2)c1)c1ccccc1Cl [Compound 1-360, (S)-(2-chlorophenyl)(3-(3-(3-chloropyridin-2-yloxy)pyrrolidin-1-yl)-4-(2-hydroxyethyl)phenyl)methanone]	100 to 1000 nM	770 nM	
Cc1cc(C(=O)N2CCC(c3ccc(-c4ccccc4C4CC4)cc3CO)C2)no1 (stereo not drawn) [Compound 2-123]			IC50 [1]: 62.9 nM
COc1ccccc1Oc1ccc(N2CC[C@H](Oc3ccc(F)cn3)C2)c(CO)c1 [Compound 1-336, (S)-(2-(3-(5-fluoropyridin-2-yloxy)pyrrolidin-1-yl)-5-(2-methoxyphenoxy)phenyl)methanol]	100 to 1000 nM	329 nM	IC50 [5]: 100 to 1000 nM; IC50 [4]: 384 nM
O=C1C(Oc2ccc3ccccc3n2)CCN1c1ccccc1 (stereo not drawn) [Compound 1-104, 1-phenyl-3-(quinolin-2-yloxy)pyrrolidin-2-one]	> 1000 nM	> 3200 nM	
COC(=O)c1cc(-c2ccccc2C(C)C)ccc1C1CCN(C(=O)c2ccc(F)cn2)C1 (stereo not drawn) [Compound 2-23]	100 to 1000 nM		IC50 [1]: 886 nM
Cc1cccnc1CO[C@H]1CCN(c2ccc(-c3ccccc3)cc2CO)C1 [Compound 1-399]		> 3200 nM	IC50 [4]: 481 nM
CC(C)(C)OC(=O)N1CC=C(c2ccc(N3CC[C@H](Oc4ccc(C(F)(F)F)cn4)C3)c(CCO)c2)CC1 [Compound 1-299, (S)-tert-butyl 4-(3-(2-hydroxyethyl)-4-(3-(5-(trifluoromethyl)pyridin-2-yloxy)pyrrolidin-1-yl)phenyl)-5,6-dihydropyridine-1 (2H)-carboxylate]	> 1000 nM	> 3200 nM	
CC(C)Oc1ccccc1N1CC[C@@H](Oc2ccc(C(F)(F)F)cn2)C1 [Compound 1-37, (R)-2-(1-(2-isopropoxyphenyl)pyrrolidin-3-yloxy)-5-(trifluoromethyl)pyridine]	> 1000 nM		
NC(=O)c1cc(-c2ccccc2)ccc1N1CC[C@@H](Oc2ccc3cc(Cl)ccc3n2)C1 [Compound 1-86, (R)-4-(3-(6-chloroquinolin-2-yloxy)pyrrolidin-1-yl)biphenyl-3-carboxamide]			IC50 [5]: > 1000 nM; IC50 [4]: > 3200 nM
CCc1ccccc1-c1ccc(N2CC[C@H](Oc3ccc(C)cn3)C2)c(CCO)n1 [Compound 1-218, (S)-2-(6-(2-ethylphenyl)-3-(3-(5-methylpyridin-2-yloxy)pyrrolidin-1-yl)pyridin-2-yl)ethanol]	100 to 1000 nM	614 nM	
N#Cc1ccc(-c2ccccc2)cc1N1CC[C@H](Oc2ccc(C(F)(F)F)cn2)C1 [Compound 1-62, (S)-3-(3-(5-(trifluoromethyl)pyridin-2-yloxy)pyrrolidin-1-yl)biphenyl-4-carbonitrile]	> 1000 nM		IC50 [5]: > 1000 nM
CC(C)(C)OC(=O)NCc1ccc(-c2ccc(N3CC[C@H](Oc4ccc(C(F)(F)F)cn4)C3)c(CO)c2)cc1 [Compound 1-269, (S)-tert-butyl (3′-(hydroxymethyl)-4′-(3-(5-(trifluoromethyl)pyridin-2-yloxy)pyrrolidin-1-yl)biphenyl-4-yl)methylcarbamate]	> 1000 nM	> 3200 nM	
CC(C)c1ccccc1Oc1ccc(C2CCN(Cc3ncccc3Cl)C2)c(CO)c1 (stereo not drawn) [Compound 2-92, (2-(1-((3-chloropyridin-2-yl)methyl)pyrrolidin-3-yl)-5-(2-isopropylphenoxy)phenyl)methanol hydrochloride]	100 to 1000 nM		IC50 [1]: 592 nM
Cc1ccc(O[C@H]2CCN(c3ccc(-c4ncccc4C)cc3CO)C2)nc1 [Compound 1-259, (S)-(5-(3-methylpyridin-2-yl)-2-(3-(5-methylpyridin-2-yloxy)pyrrolidin-1-yl)phenyl) methanol]	> 1000 nM	3050 nM	IC50 [5]: > 1000 nM; IC50 [4]: 2260 nM
O=C(c1ccc(N2CC[C@H](Oc3ccccn3)C2)c(CO)c1)c1ccccc1Cl [Compound 1-332, (S)-(2-chlorophenyl)(3-(hydroxymethyl)-4-(3-(pyridin-2-yloxy)pyrrolidin-1-yl)phenyl) methanone]	> 1000 nM	> 3200 nM	IC50 [5]: > 1000 nM; IC50 [4]: > 3200 nM
NC(=O)c1cc(-c2ccccn2)ccc1N1CC[C@@H](Oc2ncccc2Cl)C1 [Compound 1-85, (R)-2-(3-(3-chloropyridin-2-yloxy)pyrrolidin-1-yl)-5-(pyridin-2-yl)benzamide]	> 1000 nM	3480 nM	
NC(=O)c1cc(C(F)(F)F)ccc1N1CC[C@@H](Oc2ccc(C(F)(F)F)cn2)C1 [Compound 1-84, (R)-5-(trifluoromethyl)-2-(3-(5-(trifluoromethyl)pyridin-2-yloxy)pyrrolidin-1-yl)benzamide]	100 to 1000 nM	631 nM	
